Assay [1] concerns Human skeletal myoblasts. Briefly: Glucose uptake (2-DG), skeletal myoblasts. The conditions noted are these: 3 h, compared with untreated control. In kind it is cell-based. Here is the method:
Glucose uptake in skeletal muscle cells was measured using 2-deoxyglucose (2-DG). 2-DG is taken up by glucose transporters and metabolized to 2-DG-6-phosphate (2-DG6P). The amount of accumulated non-metabolized 2-DG6P is proportional to glucose uptake by cells.
Human skeletal myoblasts (Sigma 150-05a) were seeded in a 96 well plate at 10,000 cells per well in Skeletal Muscle Differentiation medium and allowed to differentiated for 72 h prior to experimentation.
The differentiated cells were serum starved for 24 h prior to stimulation with insulin or synthetic peptides. After starvation, the serum free media was removed, cells rinsed with Phosphate Buffered Saline (PBS) and media replaced with 100 μl of Krebs-Ringer-Phosphate-HEPES (KRPH) and incubated for 1 h.
The cells were then stimulated with 100 nM insulin for 30 minutes or 5 μg/ml, 0.5 μg/ml or 0.05 μg/ml synthetic peptide for 3 h respectively.
Following stimulation, the cells were incubated with 10 μl/well of 2-DG solution for 40 min and glucose uptake was measured using the ‘PrismColor Glucose Uptake Assay Kit’ (Molecutools), all steps were carried out according to the manufacturer's instructions. The experiment was repeated using HACAT cells.

Assay [2] deals with AMPK pathway. Briefly: Phospho-AMPK alpha / Phospho-ACC / Phospho-Akt1 ELISA (mechanism of action). Type of assay: cell-based. The conditions noted are these: phospho-ELISAs on cell lysates; FIGS. 12-14. As to the method: This set of experiments was undertaken to understand the mechanism of action of a peptide of SEQ ID NO. 1.
Phospho-Acetyl-CoA Carboxylase (Ser79) Sandwich ELISA Kit is a solid phase sandwich enzyme-linked immunosorbent assay (ELISA) that detects endogenous levels of acetyl-CoA carboxylase (ACC) when phosphorylated at Ser79. A phospho-ACC (Ser79) rabbit antibody was coated onto the microwells. After incubation with cell lysates, phospho-ACC protein was captured by the coated antibody. Following extensive washing, an ACC mouse detection mAb was added to detect the captured ACC protein. Anti-mouse IgG, HRP-linked antibody was then used to recognize the bound detection antibody. […] The magnitude of the absorbance for the developed color was proportional to the quantity of ACC phosphorylated at Ser79.
Phospho-Akt1 (Ser473) Sandwich ELISA Kit is a solid phase sandwich enzyme-linked immunosorbent assay (ELISA) that detects endogenous levels of phospho-Akt1 (Ser473) protein. […] The magnitude of absorbance for this developed colour is proportional to the quantity of phospho-Akt1 (Ser473) protein.
Phospho-AMPKα (Thr172) Sandwich ELISA Kit is a solid phase sandwich enzyme-linked immunosorbent assay (ELISA) that detects endogenous levels of AMPKα when phosphorylated at Thr172. […] The magnitude of the absorbance for this developed colour was proportional to the quantity of AMPKα phosphorylated at Thr172. […]
Background: ELISA stands for enzyme-linked immunosorbent assay.

As to WKDEAGKPLVK [SEQ ID NO. 1], the glucose uptake result in assay [1] (0.5 μg/ml, FIG. 6) is “increase”; in assay [1] (5 μg/ml, FIG. 7), “increase”. Also, in assay [2], the “mechanism of action (pathway)” value is “working through the AMPK pathway”.

These data come from US10729636B2, “Compositions comprising peptide [sequence]” (NURITAS LIMITED, priority 2016, dated 2020).
